Measurements published in article PMC12469161, “Anti-cancer compound screening identifies Aurora Kinase A inhibition as a means to favor CRISPR/Cas9 gene correction over knock-out” (PLOS One, 2025).

Experiments:
HEK293T-eGFP cells [1] = experiment: MTT cytotoxicity assay, 72 hours; type: cell-based; settings: 72 h; HEK293T-eGFP cells, 3 days of incubation, MTT; read-out: IC50
Description: Cells were cultured for 16–24 hours under standard culturing conditions (5% CO2, 37 °C). […] All dose ranges were added in duplicate, followed by 72 hours of incubation. Cell viability was determined using a tetrazolium based metabolic activity assay. Briefly, 5 µL of 3-(4.5-dimethylthiazol-2-yl)-2,5-diphenyltetrazolium bromide (MTT) solution (5 mg/mL MTT in sterile PBS) was added per well, and the microplates were incubated for 4 hours at 37°C and 5% CO2 in a cell culture incubator. Next, 40 µL of 10% SDS/0.01 M HCl was added per well, and the microplates were incubated for 24–72 hours at 37°C and 5% CO2 in a cell culture incubator. Subsequently the absorbance at 570 nm and background absorbance at 720 nm were measured using the Spectramax i3x (Molecular Devices, San Jose, USA). Subsequently, the absorbance values at 720 nm were subtracted from the absorbance values at 570 nm, and the corresponding values were used to plot dose-response curves.
The data was normalized to the DMSO-treated cells (defined as 100% viability) and the empty controls (defined as 0% viability).

[2] = tested on: eGFP locus in HEK293T-eGFP cells (HDR vs NHEJ); experiment: CRISPR gene-editing outcome (eGFP to BFP conversion, flow cytometry) with CRISPR-Cas9 LNP; type: cell-based
Description: (§1) Compounds were assessed in three dosages to assess the effects on gene-editing efficacy. […] Cells were incubated with these compounds for 24 hours prior to LNP addition. LNP were added to all wells at a final concentration of 20 nM SpCas9 to achieve robust genome editing. After 24 hours of co-incubation, medium was refreshed and cells were transferred to a 48 well plate for further culturing. Six days after adding compounds, cells were processed for flow cytometric analysis of the gene knock-out and gene-correction efficiencies. Briefly, a ssDNA template was used carrying two nucleotide mutations to convert the eGFP sequence to that of a blue fluorescent protein (BFP), as well as mutating the PAM sequence to ensure robust HDR. The sgRNA spacer sequence was 5’-[…]-3’, and the HDR template sequence was 5’-[…]-3’.
Flow cytometry using the BD FACS Canto II (Becton Dickinson) was used to determine cells undergoing NHEJ (eGFP and BFP negative population) and HDR (eGFP negative, BFP positive). Data analysis was performed using Flowlogic (version 8.7). Graphpad PRISM (version 9.3.1) was used for statistical analysis and preparing graphs.
(§2) The percentage of HDR relative to total gene editing in a given cell population (hereafter named Relative HDR (% of edited cells) was calculated by dividing the absolute HDR population by the sum of gene-edited cells found in the BFP+ and eGFP- gates. Absolute HDR (% of all cells) and Absolute NHEJ (% of all cells) were analyzed where appropriate. The gating strategy is given in S1 Fig in S1 File.

[3] = tested on: eGFP locus in Hepa 1–6-eGFP cells (HDR vs NHEJ); experiment: CRISPR gene-editing outcome (eGFP to BFP, flow cytometry) with ProDeliverIN CRISPR; type: cell-based, murine; settings: for dosage with overall high efficacy and manageable toxicity: Hepa 1–6-eGFP
From the text: Lipid nanoparticles (LNP) carrying SpCas9, sgRNA and HDR template DNA were formulated using the components and molecular ratios described previously. 1,1′-((2-(4-(2-((2-(bis(2-hydroxydodecyl)amino)ethyl)(2-hydroxydodecyl)amino)ethyl)piperazin-1-yl)ethyl)azanediyl)bis(dodecan-2-ol) (C12-200) was acquired from CordonPharma (Plankstadt, Germany) and used as the ionizable lipid in the formulation. 1,2-dioleoyl-sn-glycero-3-phosphoethanolamine (DOPE) was acquired from Lipoid GmbH (Steinhausen, Switzerland), Cholesterol and 1,2-dimyristoyl-rac-glycero-3-methoxypolyethylene glycol-2000 (PEG-DMG) were acquired from Sigma-Aldrich, and 1,2-dioleoyl-3-trimethylammonium-propane (DOTAP) was acquired from Merck (Darmstadt, Germany). LNP were produced using microfluidic mixing with the Dolomite Microfluidics system (Dolomite Microfluidics, Royston, United Kingdom) and herring-bone micromixer chip with hydrophilic coating (Dolomite Microfluidics, catalogue number 3200401). A total flow rate of 1.5 mL/min and flow rate ratio of 2:1 were used between an aqueous outer phase containing SpCas9, sgRNA and HDR template in nuclease free water, and the lipids in 100% ethanol in the inner phase, respectively. The resulting LNP were diluted 4 times in Dulbecco’s PBS (Sigma-Aldrich). In the experiments using the Hepa 1–6 eGFP cells, ProDeliverIN CRISPR (OZ Biosciences, San Diego, USA) was used as reported previously.
as §1
Flow cytometry using the BD FACS Canto II (Becton Dickinson) was used to determine cells undergoing NHEJ (eGFP and BFP negative population) and HDR (eGFP negative, BFP positive). […]
as §2

HEK293T cells = experiment: MTS time-resolved cytotoxicity and morphology; type: cell-based
Description: (§3) A narrower cytotoxicity range was determined by exposing cells to 0.1–1 µM of the tested compounds. 48 hours after treatment started, cells were washed and harvested using medium and one third of the volume was transferred to a fresh 96 well plate, analogous to how cells are treated during gene editing experiments. Subsequently, cells were cultured for another 3–5 days. In the case of 5 days, one third of the cells was again transferred into a fresh 96-well plate on day 3 to allow enough space for logarithmic cell growth during the additional incubation time. Cell viability was determined by the Promega One Step MTS assay (Promega, Madison, USA) using the manufacturer’s specifications. Relative cell viability for the Hepa 1–6-eGFP cells was calculated by normalizing the compound conditions to controls treated with DMSO only or DMSO plus gene editing formulations. For the HEK293T cells, the absolute absorbance at […] was used as it was more representative of the relative cell viability between samples.
(§4) Cell morphology was assessed using the Nikon Eclipse Ti2 microscope (Nikon Europe, Amstelveen, The Netherlands). Pictures were acquired at 10x magnification with a Nikon DSLR 10 camera using the same imaging settings within each experiment set (Nikon Europe, Amstelveen, The Netherlands).

[4] = MTS cell viability and morphology, 5 days; type: cell-based, murine; settings: mouse, Hepa 1–6-eGFP cells; 0.3 µM, MTS 5 days after start of treatment; read-out: relative cell viability
Description: as §3, §4

Hepa 1–6-eGFP cells = experiment: MTS cell viability and morphology, 5 days; type: cell-based, murine; settings: for cell morphology by microscopy: 0.3 µM, after 5 days, vs untreated control
Description: as §3, §4

[5] = tested on: primary murine hepatocytes; experiment: MTT cytotoxicity on primary hepatocytes; type: cell-based, murine (Ai9 mice); settings: for IC50: Mus musculus, Hepatocyte
Description: Primary murine hepatocytes were harvested from Ai9 mice and cultured in 2D prior to transfection as previously reported. […] Toxicity was measured at this timepoint, and 72 hours later,. Cell viability was calculated by subtracting a medium blank from the absorption, and dividing the absorption by that of a vehicle-only control.

[6] = tested on: PCSK9 locus in Hepa 1–6 cells; experiment: PCSK9 genome editing, Sanger sequencing and TIDER; type: cell-based, murine; settings: TIDER, 0.3 µM
Description: Transfection mixtures were prepared to deliver 30 nM RNP (and where applicable 60 nM HDR template DNA) respectively using the commercial ProdeliverIN CRISPR kit. Following this, the cells were incubated for an additional 48h followed by cell lysis and DNA purification using the DNeasy Blood and Tissue kit (Qiagen, Venlo, The Netherlands) using the manufacturers protocol for cell line lysis. Subsequently, PCR was done using the primer set in S1 Table using the Phusion Hotstart Dna Polymerase (Thermo Fischer Scientific) and the recommended thermocycle conditions and PCR mix by the manufacturer. PCR products were purified using the GeneJET PCR Purification Kit (Thermo Fischer Scientific) and finally prepared for Sanger sequencing performed by Macrogen (Amsterdam, The Netherlands. Data was analyzed using the TIDER software package available at http://shinyapps.datacurators.nl/tider/ using an untreated sequencing plot as control chromatogram and a dsDNA gBlock (Integrated DNA Technologies) containing the desired mutation as reference chromatogram. Total gene editing and HDR were analyzed for S7 Figure.

HEK293T-eGFP cells [7] = experiment: MTT cytotoxicity assay, 72 hours; type: cell-based; settings: 0.1 µM, MTT toxicity curve (S2 Fig), two days after treatment
AURKA = tested on: AURKA; parameters: method as in manufacturer; settings: ref manufacturer; cited from earlier work
AURKB = tested on: AURKB; parameters: method as in manufacturer; settings: ref manufacturer; cited from earlier work

COc1cc(Nc2ncc3c(n2)-c2ccc(Cl)cc2C(c2c(F)cccc2OC)=NC3)ccc1C(=O)O [Alisertib]
IC50 (HEK293T-eGFP cells [1]): > 10 µM
increase in preferential gene correction over gene knock-out ([2]; HEK293T, eGFP locus, sub-micromolar dosages): over 4 fold
lowest effective concentration for preferential HDR activation ([2]; HEK293T-eGFP cells, narrow dose range): 0.3 µM
preferential activation of HDR over NHEJ in hit validation ([2]; narrowed dose range, triplicate, vs LNP only): strong dose-dependent preferential activation of HDR over NHEJ
effect on the NHEJ and HDR outcomes ([2]; validated hits, Fig 2B): inhibited NHEJ and improved HDR
increase in preferential gene correction over gene knock-out ([3]; Hepa 1–6, eGFP locus, sub-micromolar dosages): over 4 fold
dosage with overall high efficacy and manageable toxicity [3]: 0.3 µM
toxicity at different incubation times (HEK293T cells; MTS, total incubation time varied (S5 Fig A)): did not vary significantly
cell viability by MTS (HEK293T cells; after 2 days): not affected
cell viability by MTS (HEK293T cells; after 5 days): dose-dependent decrease in cell viability
metabolic activity and confluency (HEK293T cells; seven days after treatment started, at least 0.3 µM): very low metabolic activity and confluency
viability at 5 days, 0.3 µM [4]: 37%
cell morphology by microscopy (Hepa 1–6-eGFP cells): did not change as drastically
IC50 ([5]; 48h after exposure): 32.7 µM
IC50 ([5]; 120h after exposure (48h incubation)): 54.8 µM
toxicity (order of) ([5]; primary murine hepatocytes, both timepoints): 30 to 50 µM
HDR at the PCSK9 locus [6]: measurable only when alisertib was present
loss of cell viability (HEK293T-eGFP cells [7]): 20%

CO[C@@H](C(=O)N1Cc2n[nH]c(NC(=O)c3ccc(N4CCN(C)CC4)cc3)c2C1)c1ccccc1 [Danusertib, danusertib]
dosage with overall high efficacy and manageable toxicity [3]: 0.3 µM
cell morphology by microscopy (Hepa 1–6-eGFP cells): not disrupted

CC(=O)NCC(=O)N1[C@@H]2CC[C@H]1c1ccc(Nc3ncc(C(F)(F)F)c(NC4CCC4)n3)cc12 [PF-03814735]
dosage with overall high efficacy and manageable toxicity [3]: 0.2 µM
cell morphology by microscopy (Hepa 1–6-eGFP cells): did not change as drastically
comparative cytotoxicity of the aurora kinase inhibitors (Hepa 1–6-eGFP cells; Hepa 1–6-eGFP): clearly more drastic toxicity
IC50 (AURKB): 0.0005 µM
